The values below come from patent US20150025077A1 (COYOTE PHARMACEUTICALS, INC., priority 2012, published 2015).

The subject of the first experiment is Rap1. The experiment is described as follows: Prenylation of Rap1 in Neuro2A cells, western blotting. It counts as cell-based, mouse. The following applies: 100 nM; with GGTI-298; percentage of control (GGTI only). The protocol: Mouse neuroblastoma Neuro2A cells were cultured in DMEM supplemented with 10% FBS for 24 hrs. The cells were treated with 102GGA derivative compounds for 24 hrs first before GGTase inhibitor GGTI-298 was added to the culture medium for additional 24 hr incubation. […] Both un-prenylated and total Rap1 protein bands were quantified using Image J and normalized to their respective loading control GAPDH. The results for control and each compound treatment were calculated as the ratio of normalized un-prenylated Rap1 to total Rap1, and averaged from two biological repeats of one experiment. The final results were presented as a percentage of the control treatments (GGTI only) from the same batch experiment. The data shown in the chart were averaged from two repeats of one experiment and presented as the ratio of normalized un-prenylated Rap1 to total Rapt Compound ID numbers in table refer to structures in Table 1 and Table 2.
Consider `CC(C)=CCC/C(C)=C/CC/C(C)=C/CC/C(C)=C/COC(=O)C1CCCCC1` [Compound 2f, 2E, 6E, 10E-Geranylgeranyl cyclohexanoate], for which the “unprenylated/total RAP1 (%)” value came to 65%.

Consider `CCOC(=O)CCNC(=O)OC/C=C(\C)CC/C=C(\C)CC/C=C(\C)CCC=C(C)C` [Compound 7m, Ethoxycarbonyl ethyl 2E, 6E, 10E-geranylgeranyl carbamate], for which the “unprenylated/total RAP1 (%)” value was 54%.

Regarding `CCCCCCNC(=O)OC/C=C(\C)CC/C=C(\C)CCC=C(C)C` [Compound 8i, Hexyl 2E, 6E-farnesyl carbamate], the “unprenylated/total RAP1 (%)” value turned out to be 59%.

On to `CC(C)=CCC/C(C)=C/CC/C(C)=C/CC/C(C)=C/COC(=S)NC1CC2CCC1C2` (stereo not drawn) [Compound 10j, Exo-Norbornyl 2E,6E,10E-geranylgeranyl thiocarbamate], for which the “unprenylated/total RAP1 (%)” value was 91%.

Regarding `CC(C)=CCC/C(C)=C/CC/C(C)=C/CC/C(C)=C/COC(=S)NCCN1CCOCC1` [Compound 10m, Morpholinyl-2′-ethyl 2E,6E,10E-geranylgeranyl thiocarbamate], the “unprenylated/total RAP1 (%)” value is listed as 100%.

On to `CCCCCNC(=O)OC(C)CC/C=C(\C)CC/C=C(\C)CCC=C(C)C` (stereo not shown) [Compound 20d, n-Pentyl 5E, 9E-farnesyl prop-2-yl carbamate], for which the “unprenylated/total RAP1 (%)” value stood at 67%.

Take `CC(C)=CCC/C(C)=C/CC/C(C)=C/CCC(C)OC(=O)NCC1CCCCC1` (stereo not shown) [Compound 20h, Cyclohexylmethyl 5E, 9E-farnesyl prop-2-yl carbamate]: the “unprenylated/total RAP1 (%)” value was 58%.

`CC(=O)CC/C=C(\C)CC/C=C(\C)CCC=C(C)C` [Compound 52]: the “unprenylated/total RAP1 (%)” value was found to be 71%.

Turning to `CC(C)=CCC/C(C)=C/CC/C(C)=C/CC/C(C)=C/CC1CCCCC1=O` (stereo not shown) [Compound 84], the “unprenylated/total RAP1 (%)” value is reported as 72%.

Consider `CC/C(=C\CCC(=O)C12CC3CC(CC(C3)C1)C2)CC/C=C(\C)CC/C=C(\C)CCC=C(C)C` [Compound 127], for which the “unprenylated/total RAP1 (%)” value amounted to 77%.

For the molecule `CCC(=O)CC/C=C(\CC)CC/C=C(\C)CC/C=C(\C)CCC=C(C)C` [Compound 128], the “unprenylated/total RAP1 (%)” value came out at 67%.

As for `CCOC(=O)/C=C(\CC)CC/C=C(\C)CC/C=C(\C)CCC=C(C)C` [Compound 131], the “unprenylated/total RAP1 (%)” value is 61%.

With `CC(=O)CC/C=C(\C)CC/C=C(\C)CC/C=C(\C)CC/C=C(\C)CCC=C(C)C` [Compound 132], the “unprenylated/total RAP1 (%)” value is listed as 103%.

The subject of the next experiment is HSP70. Put plainly: HSP70 levels in Neuro 2a cells, ELISA. It counts as cell-based, mouse. The following applies: 100 nM, 48 hrs compound then 24 hrs GGTI-298. The protocol: Mouse neuroblastoma 2a cells were cultured in DMEM with 10% FBS for 24 hrs. […] After 24 hrs cells were harvested and lysates were prepared and analyzed by ELISA for HSP70. Compound ID numbers in table refer to structures in Table 1 and Table 2.
In general terms: ELISA stands for enzyme-linked immunosorbent assay.
As for `CCOC(=O)CCNC(=O)OC/C=C(\C)CC/C=C(\C)CC/C=C(\C)CCC=C(C)C` [Compound 7m, Ethoxycarbonyl ethyl 2E, 6E, 10E-geranylgeranyl carbamate], the “HSP70 level, ELISA signal (absence of compounds normalized as 1.00)” value is 0.89.

For the molecule `CC(C)=CCC/C(C)=C/CC/C(C)=C/CC/C(C)=C/COC(=S)NC1CC2CCC1C2` (stereo not drawn) [Compound 10j, Exo-Norbornyl 2E,6E,10E-geranylgeranyl thiocarbamate], the “HSP70 level, ELISA signal (absence of compounds normalized as 1.00)” value is given as 1.06.

On to `CC(C)=CCC/C(C)=C/CC/C(C)=C/CC/C(C)=C/C1=N[C@H](CC(C)C)C(=O)O1` [Compound 37c, (R)-4-isobutyl-2-((1E,5E,9E)-2,6,10,14-tetramethylpentadeca-1,5,9,13-tetraen-1-yl)oxazol-5(4H)-one], for which the “HSP70 level, ELISA signal (absence of compounds normalized as 1.00)” value was 0.99.

With `CC(C)=CCC/C(C)=C/CC/C(C)=C/CC/C(C)=C/COC(=S)Nc1cccnc1` [Compound 38a, O-((2E,6E,10E)-3,7,11,15-tetramethylhexadeca-2,6,10,14-tetraen-1-yl) pyridin-3-ylcarbamothioate], the “HSP70 level, ELISA signal (absence of compounds normalized as 1.00)” value is 0.79.

As for `CC(C)=CCC/C(C)=C/CC/C(C)=C/CC/C(C)=C/COC(=S)NCc1ccco1` [Compound 38b, O-((2E,6E,10E)-3,7,11,15-tetramethylhexadeca-2,6,10,14-tetraen-1-yl) (furan-2-ylmethyl)carbamothioate], the “HSP70 level, ELISA signal (absence of compounds normalized as 1.00)” value was 1.04.

As for `CC(C)=CCC/C(C)=C/CC/C(C)=C/CC/C(C)=C/COC(=O)Nc1ccncc1` [Compound 39, (2E,6E,10E)-3,7,11,15-tetramethylhexadeca-2,6,10,14-tetraen-1-yl pyridin-4-ylcarbamate], the “HSP70 level, ELISA signal (absence of compounds normalized as 1.00)” value was 1.15.

Turning to `CC(C)=CCC/C(C)=C/CC/C(C)=C/CC/C(C)=C/COC(=O)N1CCN(C)CC1` [Compound 40a], the “HSP70 level, ELISA signal (absence of compounds normalized as 1.00)” value is recorded as 0.99.

Turning to `CC(C)=CCC/C(C)=C/CC/C(C)=C/CC/C(C)=C/COC(=O)Nc1ccccn1` [Compound 40b, (2E,6E,10E)-3,7,11,15-tetramethylhexadeca-2,6,10,14-tetraen-1-yl pyridin-2-ylcarbamate], the “HSP70 level, ELISA signal (absence of compounds normalized as 1.00)” value turned out to be 0.92.

Take `CC(C)=CCC/C(C)=C/CC/C(C)=C/CC/C(C)=C/CCC(=O)C(C)(C)C` [Compound 60]: the “HSP70 level, ELISA signal (absence of compounds normalized as 1.00)” value was 0.89.

As to `CCC(=O)CC/C=C(\C)CC/C=C(\C)CC/C=C(\C)CCC=C(C)C` [Compound 61], the “HSP70 level, ELISA signal (absence of compounds normalized as 1.00)” value came out at 0.98.

Turning to `CCOC(=O)/C=C/C=C(\C)CC/C=C(\C)CC/C=C(\C)CCC=C(C)C` [Compound 65], the “HSP70 level, ELISA signal (absence of compounds normalized as 1.00)” value was determined as 0.90.

As to `CCOC(=O)C(C/C=C(\C)CC/C=C(\C)CC/C=C(\C)CCC=C(C)C)C(=O)c1ccoc1` (stereo not shown) [Compound 68], the “HSP70 level, ELISA signal (absence of compounds normalized as 1.00)” value is 1.11.

Regarding `CC(C)=CCC/C(C)=C/CC/C(C)=C/CC/C(C)=C/CCC(=O)c1ccoc1` [Compound 69], the “HSP70 level, ELISA signal (absence of compounds normalized as 1.00)” value was 0.90.

For `CCCC(=O)C(C/C=C(\C)CC/C=C(\C)CC/C=C(\C)CCC=C(C)C)C(=O)OCC` (stereo not shown) [Compound 70], the “HSP70 level, ELISA signal (absence of compounds normalized as 1.00)” value is reported as 1.07.

Consider `CCOC(=O)C(C/C=C(\C)CC/C=C(\C)CC/C=C(\C)CCC=C(C)C)C(=O)C12CC3CC(CC(C3)C1)C2` (stereo not shown) [Compound 71], for which the “HSP70 level, ELISA signal (absence of compounds normalized as 1.00)” value was determined as 1.03.

As for `CCCC(=O)CC/C=C(\C)CC/C=C(\C)CC/C=C(\C)CCC=C(C)C` [Compound 73], the “HSP70 level, ELISA signal (absence of compounds normalized as 1.00)” value amounted to 0.99.

`CC(C)=CCC/C(C)=C/CC/C(C)=C/CC/C(C)=C/CCC(=O)C(C)C` [Compound 74]: the “HSP70 level, ELISA signal (absence of compounds normalized as 1.00)” value was determined as 1.08.

As to `CCOC(=O)C1(C/C=C(\C)CC/C=C(\C)CC/C=C(\C)CCC=C(C)C)CCCCCC1=O` (stereo not shown) [Compound 76], the “HSP70 level, ELISA signal (absence of compounds normalized as 1.00)” value turned out to be 0.75.

As for `CCOC(=O)C(C/C=C(\C)CC/C=C(\C)CC/C=C(\C)CCC=C(C)C)C(=O)C(C)C` (stereo not shown) [Compound 77], the “HSP70 level, ELISA signal (absence of compounds normalized as 1.00)” value was 1.03.

For the molecule `CCOC(=O)C(C)(C/C=C(\C)CC/C=C(\C)CC/C=C(\C)CCC=C(C)C)C(C)=O` (stereo not shown) [Compound 78], the “HSP70 level, ELISA signal (absence of compounds normalized as 1.00)” value was 1.00.

Regarding `CCOC(=O)C1(C/C=C(\C)CC/C=C(\C)CC/C=C(\C)CCC=C(C)C)CCCC1=O` (stereo not shown) [Compound 79], the “HSP70 level, ELISA signal (absence of compounds normalized as 1.00)” value stood at 0.98.

As for `COCC(=O)C(C/C=C(\C)CC/C=C(\C)CC/C=C(\C)CCC=C(C)C)C(=O)OC` (stereo not shown) [Compound 80], the “HSP70 level, ELISA signal (absence of compounds normalized as 1.00)” value amounted to 1.02.

`COCCC(=O)C(C/C=C(\C)CC/C=C(\C)CC/C=C(\C)CCC=C(C)C)C(=O)OC` (stereo not shown) [Compound 81]: the “HSP70 level, ELISA signal (absence of compounds normalized as 1.00)” value is reported as 1.12.

On to `CCOC(=O)C(C/C=C(\C)CC/C=C(\C)CC/C=C(\C)CCC=C(C)C)C(C)=O` (stereo not shown) [Compound 87], for which the “HSP70 level, ELISA signal (absence of compounds normalized as 1.00)” value is 0.95.

Turning to `CC(=O)CC/C=C(\C)CCC=C1CCCCC1` [Compound 92], the “HSP70 level, ELISA signal (absence of compounds normalized as 1.00)” value amounted to 0.92.

With `CCOC(=O)C=C1CCCCC1` [Compound 93], the “HSP70 level, ELISA signal (absence of compounds normalized as 1.00)” value came out at 0.87.

For the molecule `CC(C)=CCC/C(C)=C/CC/C(C)=C/CCC(=O)C(C)(C)C` [Compound 100], the “HSP70 level, ELISA signal (absence of compounds normalized as 1.00)” value is given as 1.14.

In the case of `CCC(=O)CC/C=C(\C)CC/C=C(\C)CCC=C(C)C` [Compound 102], the “HSP70 level, ELISA signal (absence of compounds normalized as 1.00)” value is reported as 1.04.

`CON=C(C)CC/C=C(\C)CC/C=C(\C)CC/C=C(\C)CCC=C(C)C` [Compound 104]: the “HSP70 level, ELISA signal (absence of compounds normalized as 1.00)” value worked out at 0.90.

Regarding `C=CCO/N=C(\C)CC/C=C(\C)CC/C=C(\C)CC/C=C(\C)CCC=C(C)C` [Compound 109], the “HSP70 level, ELISA signal (absence of compounds normalized as 1.00)” value was 1.12.

As for `CC(C)=CCC/C(C)=C/CC/C(C)=C/CC/C(C)=C/CC/C(C)=N/OC1CCCCO1` (stereo not shown) [Compound 111], the “HSP70 level, ELISA signal (absence of compounds normalized as 1.00)” value came to 1.10.

For `CC(C)=CCC/C(C)=C/CC/C(C)=C/CC/C(C)=C/CC/C(C)=N/OCc1ccccc1` [Compound 113], the “HSP70 level, ELISA signal (absence of compounds normalized as 1.00)” value is 1.01.

For the molecule `CCC(=CCCC(C)=O)CC/C=C(\C)CC/C=C(\C)CCC=C(C)C` [Compound 117], the “HSP70 level, ELISA signal (absence of compounds normalized as 1.00)” value was determined as 1.08.

Consider `C=CCCC(=O)CC/C=C(\C)CC/C=C(\C)CC/C=C(\C)CCC=C(C)C` [Compound 146], for which the “HSP70 level, ELISA signal (absence of compounds normalized as 1.00)” value is reported as 1.13.

On to `CC(C)=CCC/C(C)=C/CC/C(C)=C/CC/C(C)=C/CC1CCCCCC1=O` (stereo not shown) [Compound 147], for which the “HSP70 level, ELISA signal (absence of compounds normalized as 1.00)” value is recorded as 0.94.

The same experiment, now with this note: 10uM, 48 hrs compound then 24 hrs GGTI-298.
Take `CCCCCCNC(=O)OC/C=C(\C)CC/C=C(\C)CCC=C(C)C` [Compound 8i, Hexyl 2E, 6E-farnesyl carbamate]: the “HSP70 level, ELISA signal (absence of compounds normalized as 1.00)” value is 0.97.

Turning to `CC(C)=CCC/C(C)=C/CC/C(C)=C/CC/C(C)=C/COC(=S)NC1CC2CCC1C2` (stereo not drawn) [Compound 10j, Exo-Norbornyl 2E,6E,10E-geranylgeranyl thiocarbamate], the “HSP70 level, ELISA signal (absence of compounds normalized as 1.00)” value was determined as 1.08.

Take `CC(C)=CCC/C(C)=C/CC/C(C)=C/CC/C(C)=C/COC(=S)NCCN1CCOCC1` [Compound 10m, Morpholinyl-2′-ethyl 2E,6E,10E-geranylgeranyl thiocarbamate]: the “HSP70 level, ELISA signal (absence of compounds normalized as 1.00)” value is reported as 1.06.

Take `CNC(=O)OC/C=C(\C)CC/C=C(\C)CCC=C(C)C` [Compound 42]: the “HSP70 level, ELISA signal (absence of compounds normalized as 1.00)” value is reported as 1.25.
